≈ marks a conversion by molar mass, not a printed value. Read-outs that look alike come from different tables or passages of the source. Square brackets hold non-standard residues; d marks the D form. Peptide text beside a SMILES is read from it. dBip(4'-Cl) = N[C@H](Cc1ccc(-c2ccc(Cl)cc2)cc1)C(=O)O
Tests used:
[1] = tested on: Mupirocin-resistant MRSA ATCC-BAA-1556; assay: microbe, parasite or virus in culture; assay type: cell-based, Staphylococcus aureus
Procedure, shortened: (§1)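 Colonies from MH2 agar grown in cation-adjusted MH2 broth at 37° C to OD600 0.15-0.16, then diluted to ~1×10^6 CFU/mL and added to 2-fold compound dilutions (100 to 0.195 μM, duplicates). Plates incubated overnight at 35° C; OD600 measured to set the MIC.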

[2] = tested on: Mupirocin-resistant MRSA ATCC-BAA-1708; assay: microbe, parasite or virus in culture; assay type: cell-based, Staphylococcus aureus; settings: ATCC-BAA-1708; read-out: MIC
Procedure, shortened: as §1

[3] = tested on: Mupirocin-resistant MRSA ATCC-BAA-1750 (USA200); assay: microbe, parasite or virus in culture; assay type: cell-based, Staphylococcus aureus; settings: ATCC-BAA-1750; read-out: MIC
Procedure, shortened: as §1

[4] = tested on: Mupirocin-susceptible MRSA ATCC-33592 (ST239); assay: microbe, parasite or virus in culture; assay type: cell-based, Staphylococcus aureus; settings: ATCC-33592; read-out: MIC
Procedure, shortened: as §1

[5] = tested on: Mupirocin-susceptible MRSA ATCC-700699 (VISA); assay: microbe, parasite or virus in culture; assay type: cell-based, Staphylococcus aureus; settings: ATCC-700699; read-out: MIC
Procedure, shortened: as §1

[6] = tested on: Mupirocin-susceptible MRSA ATCC-BAA-1681 (USA100); assay: microbe, parasite or virus in culture; assay type: cell-based, Staphylococcus aureus; settings: ATCC-BAA-1681; read-out: MIC
Procedure, shortened: as §1

[7] = tested on: Mupirocin-susceptible MRSA ATCC-BAA-1707 (USA400); assay: microbe, parasite or virus in culture; assay type: cell-based, Staphylococcus aureus; settings: ATCC-BAA-1707; read-out: MIC
Procedure, shortened: as §1

[8] = tested on: Mupirocin-susceptible MRSA ATCC-BAA-1754 (ST45); assay: microbe, parasite or virus in culture; assay type: cell-based, Staphylococcus aureus; settings: ATCC-BAA-1754; read-out: MIC
Procedure, shortened: as §1

[9] = tested on: Mupirocin-susceptible MRSA ATCC-BAA-1756 (USA300); assay: microbe, parasite or virus in culture; assay type: cell-based, Staphylococcus aureus; settings: ATCC-BAA-1756; read-out: MIC
Procedure, shortened: as §1

[10] = tested on: Mupirocin-susceptible MRSA ATCC-BAA-2762 (EMRSA15, ST22); assay: microbe, parasite or virus in culture; assay type: cell-based, Staphylococcus aureus; settings: ATCC-BAA-2762; read-out: MIC
Procedure, shortened: as §1

[11] = tested on: Mupirocin-resistant MRSA (ATCC-BAA-1556); assay: Time-kill assay at 4xMIC (FIG. 1); assay type: cell-based, Staphylococcus aureus; settings: 4×MIC
S. aureus NARSA VRS1 = assay: microbe, parasite or virus in culture; assay type: cell-based
Method: (§2) The antibacterial potency of Compound 34 was measured using the in vitro broth microdilution assay under assay conditions described by the Clinical and Laboratory Standards Institute. […] The test substance was dissolved in 100% DMSO (unless stated below), suspended completely by sonication or vortexing, diluted by 2-fold serial titrations in the same vehicle, for a total of 11 test concentrations. A 4 μL aliquot of each dilution was added to 196 μL of broth medium seeded with the organism suspension in wells of a 96 well plate (bacterial count: 2-8×10^5 colony forming units/mL final). The final volume was 200 μL in each well and the final DMSO concentration was 2%. The incubation time is 1 day at 36° C. All strains tested underwent aerobic respiration. Following incubation, the test plates were visually examined and wells were scored for growth or complete growth inhibition to define the minimum inhibitory concentration. Each test substance was evaluated in duplicate and the results below are the duplicate test values. Vehicle-control and an active reference agent were used as blank and positive controls, respectively.

S. aureus NARSA VRS2 = assay: microbe, parasite or virus in culture; assay type: cell-based
Method: as §2

S. aureus NARSA VRS3a = assay: microbe, parasite or virus in culture; assay type: cell-based
Method: as §2

`N=C(N)NCCC[C@@H](NC(=O)[C@@H](Cc1ccc(-c2ccc(Cl)cc2)cc1)NC(=O)[C@@H](CCCNC(=N)N)NC(=O)[C@H](N)Cc1ccc(-c2ccc(Cl)cc2)cc1)C(N)=O` [Compound 34] (H-[dBip(4'-Cl)][dR][dBip(4'-Cl)][dR]-NH2) was tested, and the MIC ([1]; Mupirocin-resistant MRSA ATCC-BAA-1556, cation-adjusted MH2 broth, overnight 35° C., OD600, read-out: MIC) was 3.125 µM (≈ 2.64 µg/mL), the “improvement of bioactivity (lower MIC values) as compared to Compound 2” value ([1]; against Mupirocin-resistant MRSA strains) was “about 4 fold” and the MIC [2] was 1.56 µM (≈ 1.32 µg/mL). The MIC [3] was 1.56 µM (≈ 1.32 µg/mL), the MIC [4] was 3.125 µM (≈ 2.64 µg/mL) and the MIC [5] was 3.125 µM (≈ 2.64 µg/mL). It also gave an MIC [6] of 3.125 µM (≈ 2.64 µg/mL), an MIC [7] of 3.125 µM (≈ 2.64 µg/mL) and an MIC [8] of 3.125 µM (≈ 2.64 µg/mL). For the same compound, the MIC [9] was 1.56 µM (≈ 1.32 µg/mL), the MIC [10] was 3.125 µM (≈ 2.64 µg/mL) and the “time-kill: rate of killing compared to Linezolid, Retapamulin and Vancomycin” value [11] was “more rapidly as compared to Linezolid, Retapamulin and Vancomycin”. The MIC (S. aureus NARSA VRS1; NARSA VRS1, read-out: MIC) was 2.37 µM, the MIC (S. aureus NARSA VRS1; S. aureus NARSA VRS1, CAMHB II) was 2.0 µg/mL and the MIC (S. aureus NARSA VRS2; NARSA VRS2, read-out: MIC) was 2.37 µM. The MIC (S. aureus NARSA VRS2; S. aureus NARSA VRS2, CAMHB II) was 2.0 µg/mL, the MIC (S. aureus NARSA VRS3a; NARSA VRS3a, read-out: MIC) was 2.37 µM and the MIC (S. aureus NARSA VRS3a; S. aureus NARSA VRS3a, CAMHB II) was 2.0 µg/mL.
